Patent US20110060037A1, “USE OF NPY Y5 RECEPTOR ANTAGONISTS FOR THE PREVENTION OF PSYCHO-STIMULANT AND OPIOID ABUSE” (priority 2008, published 2011)
Entries after “also recorded” stand apart in the source; their conditions may differ.

Legend:
[1] = system: NMRI mice; test: Cocaine-induced hyperactivity; type: in vivo
From the text: The apparatus for measuring locomotor hyperactivity consisted of 16 activity Plexiglas boxes (37×21×17 cm). Eight dual photocells placed throughout the length of each box, detected movement of the animals. A plate was placed on top of the box in order to keep the mice from jumping out during the sessions. Sawdust was placed in a thin layer on the floor of the box. All activity boxes were connected to an interface (SG 502, Med. Associates Inc., East Fairfield, Vt., USA), measuring each beam-break. A computer and activity software (Ellegaard Systems, DK) were used to record the results from each activity box.
In all activity experiments an i.p. injection of either vehicle or drug was administered 3-7 minutes before testing. The animal was then placed in an activity box and the activity was measured for 30 minutes. […]
Conditioned place preference data were analysed using repeated measure one-way ANOVA between days within each group on all four groups of both experiments. […] Post-conditioning test and reinstatement presented as percent of its own saline group were analysed with a one-way ANOVA followed by post-hoc LSD t-tests. Total crossings were analysed with a one-way ANOVA followed by post-hoc LSD t-tests. Data presented as 5 minutes intervals was analysed using repeated measures ANOVA with treatment as between subjects factor followed by LSD post-hoc t-test. […]

[2] = system: NMRI mice; test: Acute self-administration: cocaine reinforcement; type: in vivo; settings: for nose-poking when saline was the i.v.-reinforcer (per se effect): L-152,804 10 mg/kg p.o. vs vehicle p.o.
[3] = system: NMRI mice; test: Acute self-administration: food reinforcement; type: in vivo; settings: L-152,804 10 mg/kg p.o. two hours before; fasted overnight; P=0.573 vs. vehicle pre-treated ensure; FIG. 3
Description: The self-administration apparatus used was described above. The end of the PVC tubing, mentioned above, was secured on the outside of the self-administration box at the top of the nose-poke hole, thereby enabling the mice to reach the end of the PVC tube to acquire the content used as reinforcer (ensure protein drink, Abbott Laboratories, USA). The animals fasted overnight, with water still available.
Male NMRI mice received p.o. administration of L-152,804 (10 mg/kg) or corresponding vehicle. Two hours later, the animals were subjected to the self-administration procedure described above with access to PVC tubing containing ensure (nvehicle=11, nL-152,804=13) or without any drink content (=control, n=16).
Data were analyzed using SPSS (SPSS Inc, USA). In the self-administration experiments, two animals from the L-152,804 experiment were excluded. […] In the first and third self-administration experiments, data were analyzed using one-way analysis of variance (ANOVA) followed by post-hoc LSD t-test. […] Subsequently, after significant treatment effect of cocaine, data were analyzed using one-way ANOVA followed by post-hoc LSD t-tests. […]

[4] = 2 hrs after oral administration, 10 mg/kg; cited from earlier work

SMILES: CC1(C)CC(=O)C(C2C3=C(CC(C)(C)CC3=O)Oc3ccccc32)C(=O)C1 [L-152,804, 5,5-Dimethyl-2-(2,3,4,9-tetrahydro-3,3-dimethyl-1oxo-1H-xanthen-9-yl)-1,3-cyclohexanedione]
- cocaine-induced hyperactivity (locomotor activity, beam crossings) ([1]; L-152,804 10 mg/kg p.o. two hours prior to cocaine 10 mg/kg, 30 min observation and 5-min intervals, FIG. 7): appeared to be attenuated; also recorded: prevented a significant cocaine-induced increase in locomotor activity
- locomotor activity in saline i.p.-treated animals ([1]; L-152,804 10 mg/kg p.o. vs vehicle): No effect
- nose-poking when saline was the i.v.-reinforcer (per se effect) [2]: no effect; also recorded: did not significantly decrease
- nose-poking when saline was the i.v.-reinforcer (per se effect) ([2]; listed as L-152,802): No per se effect
- self-administration of cocaine (nose-poking), significance of decrease ([2]; L-152,804 10 mg/kg p.o., cocaine 0.03 mg/kg/infusion, P=0.004): reaching significance
- cocaine self-administration vs. saline i.v. in L-152,804-pretreated mice ([2]; L-152,804 10 mg/kg p.o., cocaine 0.01-1.0 mg/kg/infusion, post-hoc LSD t-tests): no significant doses vs. saline; also recorded: did not self-administer cocaine at a significantly higher rate
- downward shift of the cocaine dose-response curve (efficacy of cocaine) ([2]; L-152,804 10 mg/kg p.o., vertex of fitted parabola, likelihood ratio test P<0.001): shifted down; also recorded: shifted significantly downward
- shift of the cocaine dose-response curve to the right or left (potency of cocaine) ([2]; L-152,804 10 mg/kg p.o., vertex of fitted parabola, likelihood ratio test P=0.25): neither shifted significantly to the right nor to the left; also recorded: showed a tendency toward a rightward shift
- self-administration of cocaine (nose-poking), significance of decrease ([2]; L-152,804 30 mg/kg p.o., cocaine 0.03 mg/kg/infusion, P=0.002): reaching significance
- self-administration of cocaine (nose-poking) ([2]; cocaine 0.03 mg/kg/infusion i.v., L-152,804 3, 10 or 30 mg/kg p.o. two hours before, FIG. 1): significantly and dose-dependently decreased
- nose-poking frequency of i.v.-administered cocaine at the other self-administered cocaine dose ([2]; second experiment, L-152,804 10 mg/kg p.o., cocaine 0.01 mg/kg/infusion as printed): showed a similar trend
- nose-poking frequency of i.v.-administered cocaine at the peak dose of cocaine ([2]; second experiment, L-152,804 10 mg/kg p.o., cocaine 0.03 mg/kg/infusion, P=0.006, FIG. 2): significantly reduced
- food (ensure protein drink) self-administration [3]: had no effect; also recorded: did not alter
- amount of L-152,804 in the rat brain [4]: significant amount
